Assay results as given in patent publication US7250414B2, “Diphenylmethyl compounds useful as muscarinic receptor antagonists” (Theravance, Inc., priority 2004, dated 2007).
pKi: −log10 of the molar value.

Tests used:
[1] = target: T1, hM3 muscarinic receptor subtype (Homo sapiens, UniProt P20309); assay: Radioligand binding assay ([3H]-NMS displacement); settings: CHO cell membranes, [3H]-NMS at 1 nM, Cheng-Prusoff; read-out: Ki value for the M3 muscarinic receptor subtype
T1 construct: expressed in transfected cells; crude membranes prepared in house
T1 sequence (P20309 whole entry): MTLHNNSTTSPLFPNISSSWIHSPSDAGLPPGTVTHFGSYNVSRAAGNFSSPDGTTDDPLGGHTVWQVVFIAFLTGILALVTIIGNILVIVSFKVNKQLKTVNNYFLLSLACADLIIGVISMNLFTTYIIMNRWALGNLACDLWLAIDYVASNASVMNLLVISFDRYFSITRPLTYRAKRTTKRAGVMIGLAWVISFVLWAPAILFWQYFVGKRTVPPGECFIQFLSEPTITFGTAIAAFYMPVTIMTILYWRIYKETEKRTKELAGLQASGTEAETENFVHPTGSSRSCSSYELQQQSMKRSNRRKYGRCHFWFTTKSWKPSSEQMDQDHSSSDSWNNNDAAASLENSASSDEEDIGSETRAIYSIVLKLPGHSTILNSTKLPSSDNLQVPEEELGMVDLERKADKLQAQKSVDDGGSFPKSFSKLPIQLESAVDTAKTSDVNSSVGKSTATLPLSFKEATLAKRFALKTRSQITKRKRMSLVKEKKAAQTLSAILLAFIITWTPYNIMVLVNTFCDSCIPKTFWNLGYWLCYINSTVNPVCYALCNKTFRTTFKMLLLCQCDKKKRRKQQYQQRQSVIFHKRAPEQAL
Description: A. Membrane Preparation from Cells Expressing hM1, hM2, hM3 and hM4 Muscarinic Receptor Subtypes
CHO cell lines stably expressing cloned human hM1, hM2, hM3 and hM4 muscarinic receptor subtypes, respectively, were grown to near confluency in medium consisting of HAM's F-12 supplemented with 10% FBS and 250 μg/mL Geneticin. The cells were grown in a 5% CO2, 37° C. incubator and lifted with 2 mM EDTA in dPBS. Cells were collected by 5 minute centrifugation at 650×g, and cell pellets were either stored frozen at −80° C. or membranes were prepared immediately. For membrane preparation, cell pellets were suspended in lysis buffer and homogenized with a Polytron PT-2100 tissue disrupter (Kinematica AG; 20 seconds×2 bursts). […] The protein concentration of the membrane suspension was determined by the method described in Lowry, O. et al., […] 193:265 (1951). […]
Radioligand binding assays were performed in 96-well microtiter plates in a total assay volume of 100 μL. […] Filter plates were rinsed three times with wash buffer (10 mM HEPES) to remove unbound radioactivity. […] The plates were then counted in a PerkinElmer Topcount liquid scintillation counter (PerkinElmer Inc., Wellesley, Mass.). Binding data were analyzed by nonlinear regression analysis with the GraphPad Prism Software package (GraphPad Software, Inc., San Diego, Calif.) using the one-site competition model. […]

[2] = tested on: pilocarpine-evoked salivation; assay: Inhalation guinea pig salivation assay; format: in vivo
Description: Inhalation Guinea Pig Salivation Assay
Guinea pigs (Charles River, Wilmington, Mass.) weighing 200-350 g were acclimated to the in-house guinea pig colony for at least 3 days following arrival. Test compound or vehicle were dosed via inhalation (IH) over a 10 minute time period in a pie shaped dosing chamber (R&S Molds, San Carlos, Calif.). Test solutions were dissolved in sterile water and delivered using a nebulizer filled with 5.0 mL of dosing solution. Guinea pigs were restrained in the inhalation chamber for 30 minutes. During this time, guinea pigs were restricted to an area of approximately 110 sq. cm. […] Upon completion of nebulization, guinea pigs were evaluated at 1.5, 6, 12, 24, 48, or 72 hrs after treatment.
Guinea pigs were anesthetized one hour before testing with an intramuscular (IM) injection of a mixture of ketamine 43.75 mg/kg, xylazine 3.5 mg/kg, and acepromazine 1.05 mg/kg at an 0.88 mL/kg volume. […] Saliva was collected for 10 minutes, at which point the gauze pad was weighed and the difference in weight recorded to determine the amount of accumulated saliva (in mg). The mean amount of saliva collected for animals receiving the vehicle and each dose of test compound was calculated. […] Results were calculated using result means (n=3 or greater). Confidence intervals (95%) were calculated for each dose at each time point using two-way ANOVA. […]

pKi [1] | SMILES | apparent lung selectivity index (ratio of anti-sialagogue ID50 to bronchoprotective ID50) [2]
6.96 | Cc1cnc(CNCCc2ccc(CCN3CC[C@@H](C(C(N)=O)(c4ccccc4)c4ccccc4)C3)cc2)cn1 [Example 16, 2-{(S)-1-[2-(4-{2-[(5-methylpyrazin-2-ylmethyl)amino]ethyl}phenyl)ethyl]pyrrolidin-3-yl}-2,2-diphenylacetamide] | 
 | CNCCc1ccc(CCN2CC[C@@H](C(C(N)=O)(c3ccccc3)c3ccccc3)C2)cc1 [Example 2, 2-((S)-1-{2-[4-(2-Methylaminoethyl)phenyl]ethyl}pyrrolidin-3-yl)-2,2-diphenyl-acetamide] | greater than 15
